The record followed here is US20120316203A1, “Compositions and Methods for Inhibition of Cancers” (THE OHIO STATE UNIVERSITY RESEARCH FOUNDATION, priority 2009, published 2012).

For series [1], the system named is A2780R, PA-1, SKOV3, OV4, and OVCAR3 human ovarian cancer cell lines. Put plainly: Cell viability by MTT assay, other ovarian cancer cell lines. Format: cell-based. To be noted: 10 μmol/L; 24 h. How it is done: Cell viability was determined by a colorimetric assay using MTT. In the mitochondria of living cells, yellow MTT undergoes a reductive conversion to formazan, producing a purple color. Cells, grown to […] confluence in 75-mm flasks, were trypsinized, counted, seeded in 96-well plates with an average population of 7,000 cells per well, incubated overnight, and then treated with curcumin, H-4073, or HO-3867 for 24 hours. All experiments were done using eight replicates and, repeated at least thrice.
Background: Formazan colour is commonly taken as a measure of viable cells.

The subject of series [2] is A2780R, SKOV3, OV4, and OVCAR3 cells. Put plainly: Western blot of apoptosis and JAK/STAT3 in four additional ovarian cancer cell lines. Format: cell-based, human. The settings on record: 10 μmol/L, 24 hours, all four cell lines. How it is done: Cells in RPMI 1640 were treated with DMSO (control) or HO-3867 (10 μmol/L) for 24 hours. Equal volumes of DMSO (0.1% v/v) were present in each treatment. Following treatment, the cell lysates were prepared in non-denaturing lysis buffer containing 10 mmol/L Tris-HCl (pH 7.4), 150 mmol/L NaCl, 1% Triton X-100, 1 mmol/L EDTA, 1 mmol/L EGTA, 0.3 mmol/L phenylmethyl-sulfonyl fluoride, 0.2 mmol/L sodium orthovanadate, 0.5% NP40, 1 μg/mL aprotinin, and 1 μg/mL leupetin. The lysates were centrifuged at 10,000×g for 20 minutes at 4° C. and the supernatant was separated. The protein concentration in the lysates was determined using a Pierce detergent-compatible protein assay kit. For Western blotting, 25 to 50 μg of protein lysate per sample were denatured in 2×SDS-PAGE sample buffer and subjected to SDS-PAGE on a 10% tris-glycine gel. The separated proteins were transferred to a polyvinylidene fluoride membrane and were blocked with 5% nonfat milk powder (w/v) in TBST (10 mmol/L Tris, 10 mmol/L NaCl, 0.1% Tween 20) for 1 hour at room temperature or overnight at 4° C. […] The bound antibodies were detected with horseradish peroxidase-labeled sheep anti-mouse IgG or horseradish peroxidase-labeled donkey anti-rabbit IgG using an enhanced chemiluminescence detection system (ECL Advanced kit). Protein expressions were determined using the Image Gauge v. […]
A general note: Immunoblotting shows a protein as a band on a membrane.

For series [3], the system named is A2780 xenograft tumor tissue. Put plainly: Immunoblot analysis of excised xenograft tumor tissue (JAK/STAT3, targets, apoptosis). The format is in vivo, BALB/c nude mice. As for the experimental part: Cells in RPMI 1640 were treated with DMSO (control) or HO-3867 (10 μmol/L) for 24 hours. Equal volumes of DMSO (0.1% v/v) were present in each treatment. Following treatment, the cell lysates were prepared in non-denaturing lysis buffer containing 10 mmol/L Tris-HCl (pH 7.4), 150 mmol/L NaCl, 1% Triton X-100, 1 mmol/L EDTA, 1 mmol/L EGTA, 0.3 mmol/L phenylmethyl-sulfonyl fluoride, 0.2 mmol/L sodium orthovanadate, 0.5% NP40, 1 μg/mL aprotinin, and 1 μg/mL leupetin. The lysates were centrifuged at 10,000×g for 20 minutes at 4° C. and the supernatant was separated. The protein concentration in the lysates was determined using a Pierce detergent-compatible protein assay kit. For Western blotting, 25 to 50 μg of protein lysate per sample were denatured in 2×SDS-PAGE sample buffer and subjected to SDS-PAGE on a 10% tris-glycine gel. The separated proteins were transferred to a polyvinylidene fluoride membrane and were blocked with 5% nonfat milk powder (w/v) in TBST (10 mmol/L Tris, 10 mmol/L NaCl, 0.1% Tween 20) for 1 hour at room temperature or overnight at 4° C. The membranes were then incubated with the primary antibodies. The bound antibodies were detected with horseradish peroxidase-labeled sheep anti-mouse IgG or horseradish peroxidase-labeled donkey anti-rabbit IgG using an enhanced chemiluminescence detection system (ECL Advanced kit). Protein expressions were determined using the Image Gauge v. 3.45 software.
Cultured A2780 cancer cells (2×10^6 cells in […] of PBS) were s.c. injected into the back of 6-week-old BALB/c nude mice from the National Cancer Institute. Five to 7 days later, when the tumors reached 3 to 5 mm in diameter, the mice were divided (n=9/group) in a manner to equalize the mean tumor diameter among the groups. The control group was given a normal diet (no treatment), whereas the experimental groups were treated using the DAP compounds mixed with the animal feed (Harlan Teklad) at three different levels (25, 50, and 100 ppm). The doses were chosen based on an initial dose-response study optimized to produce an observable effect on tumor growth. The size of the tumor was measured twice per week using a digital Vernier caliper. The tumor volume was determined from the orthogonal dimensions (d1, d2, d3) using the formula (d1×d2×d3)×π/6. Thirty five days after the beginning of HO-3867 treatment, the mice were sacrificed and the tumors were resected. The tumor tissues were then subjected to immunoblot analysis.

As to `CC1(C)C=C(CN2C/C(=C\c3ccc(F)cc3)C(=O)/C(=C/c3ccc(F)cc3)C2)C(C)(C)N1O` [HO-3867, 1-[(1-oxyl-2,2,5,5-tetramethyl-2,5-dihydro-1H-pyrrol-3-yl)methyl]-(3E,5E)-3,5-bis(4-fluorobenzylidene)piperidin-4-one], the “cytotoxicity in other human ovarian cancer cell lines” value in series [1] was “equally and significantly toxic”. Moreover, in series [2], the “caspase-3 and PARP cleavage” value was “clearly showed caspase-3 and PARP cleavage”; the “expression levels of pSTAT3 and JAK1” value is “decrease”. Also, in series [3] (mouse, in vivo), the “cleaved caspase-3 and PARP in tumors” value is listed as “significant induction”; the “cyclin D1, VEGF, Bcl-2, and Survivin levels in tumors” value is recorded as “clear decrease”; the “pJAK levels in tumor tissues” value was “did not observe any significant change”; the “total JAK levels in tumor tissues” value is given as “clear downregulation”. Also, the “pSTAT3 Tyr705 and Ser727 levels in tumor tissue” value in series [3] (without affecting total STAT3) is given as “decreased expressions”.
